Measurements as given in patent US20240408008A1, “AN IN-SITU GELLING ENEMA OF RIFAMYCIN FOR TREATING POUCHITIS AND DISTAL ULCERATIVE COLITIS” (COSMO TECHNOLOGIES LTD., priority 2021, published 2024).
Converted amounts (≈) assume the structure as drawn.

What was measured:
[1] = system: Streptococcus pyogenes; test: MIC, broth dilution; format: cell-based; conditions: ATCC700460; Streptococcus pyogenes (ATCC 700460); aerobic
[2] = system: Klebsiella oxytoca; test: MIC, broth dilution; format: cell-based; conditions: aerobic
[3] = system: F. nucleatum; test: MIC, broth dilution; format: cell-based; conditions: Fusobacterium nucleatum, anaerobic
[4] = system: Clostridium difficile; test: MIC, broth dilution; format: cell-based; conditions: Clostridioides difficile, anaerobic
Excerpt: The Minimum Inhibitory Concentration (MIC) is defined as the lowest concentration expressed in mg/L (equivalent to μg/mL) of an antimicrobial ingredient or agent that is bacteriostatic (prevents the visible growth of bacteria). MICs are used to evaluate the antimicrobial efficacy of various compounds by measuring the effect of decreasing concentrations of antibiotic over a defined period in terms of inhibition of microbial population growth. MIC is generally regarded as the most basic laboratory measurement of the activity of an antimicrobial agent against an organism.
Antimicrobial characteristics of Rifamycin sodium salt was assessed on a panel of selected bacteria involved in pouchitis pathogenesis and a standard broth dilution method was used to determine the MIC of Rifamycin. Briefly, two-fold dilutions of the tested compounds were dispensed in 96 round bottom well plates, each dilution was processed in the liquid culture medium suitable for the tested bacterial species. Bacteria inocula were prepared by a suspension of the microbial strain in sterile water saline and adjusted to a concentration of 0.5McFarland standard corresponding to 1.5×10^8 CFU/ml. A final bacterial concentration of 0.5-1×10^5 CFU/ml was distributed in each well. […] MIC was recorded when there was visible growth in the positive growth control column (bacterial inoculum without test substance). […]

[5] = system: Escherichia coli; test: MIC, broth dilution; format: cell-based; conditions: aerobic
[6] = system: B. longum; test: MIC, broth dilution; format: cell-based; conditions: Bifidobacterium longum, anaerobic
[7] = system: B. bifidum; test: MIC, broth dilution; format: cell-based; conditions: Bifidobacterium bifidum, DSM20082; B. bifidum (DSM 20082); anaerobic
[8] = system: C. perfringens; test: microbe, parasite or virus in culture; format: cell-based; conditions: Clostridium perfringens, DSM11783
[9] = system: Faecalibacterium prausnitzii; test: MIC, broth dilution; format: cell-based; conditions: anaerobic
[10] = system: Eikenella corrodens; test: MIC, broth dilution; format: cell-based; conditions: DSM8340; Eikenella corrodens (DSM 8340); anaerobic
[11] = system: Aggregatibacter actinomycetemcomitans; test: MIC, broth dilution; format: cell-based; conditions: DSM11123; Aggregatibacter actinomycetemcomitans (DSM 11123); anaerobic
[12] = system: mTOR pathway; test: Inhibition of mTOR and S6R phosphorylation in primary colonic epithelial cells, flow cytometry; format: cell-based, human
Description: To evaluate Rifamycin activity on the mTOR pathway, primary colonic epithelial cells were serum starved for 24 hr and restimulated with serum for 48 hr to induce phosphorylation of mTOR and its downstream target protein […]. Serum stimulated cells were treated with Rifamycin SV, Rifaximin, the positive control Rapamycin, or the negative vehicle control DMSO. Cells were fixed, stained with antibodies against pmTOR and pS6R then analyzed by flow cytometry.

[13] = system: Bifidobacterium breve; test: MIC, broth dilution; format: cell-based; conditions: DSM20091; Bifidobacterium breve (DSM 20091); anaerobic
[14] = system: Enteroccocus faecium; test: MIC, broth dilution; format: cell-based; conditions: aerobic

CO[C@H]1/C=C/O[C@@]2(C)Oc3c(C)c(O)c4c(O)c(cc(O)c4c3C2=O)NC(=O)/C(C)=C\C=C\[C@H](C)[C@H](O)[C@@H](C)[C@@H](O)[C@@H](C)[C@H](OC(C)=O)[C@@H]1C [Rifamycin SV] was tested. Which MIC [1] did it give?
The MIC was 0.5 µg/mL (≈ 0.717 µM).

What about the MIC ([2]; DSM6673, Klebsiella oxytoca (DSM 6673)) of the same compound?
Its MIC is 128 µg/mL (≈ 183 µM).

What about the MIC ([2]; Klebsiella oxytoca, ATCC700324, K. oxytoca (ATCC 700324)) of the same compound?
Its MIC is 200 µg/mL (≈ 287 µM).

And the MIC ([2]; Klebsiella oxytoca, DSM4798, K. oxytoca (DSM 4798))?
The MIC was 256 µg/mL (≈ 367 µM).

And the MIC ([2]; Klebsiella oxytoca, DSM5175, K. oxytoca (DSM 5175))?
Its MIC is 128 µg/mL (≈ 183 µM).

What about the MIC ([3]; DSM15643, F. nucleatum (DSM 15643)) of the same compound?
The MIC was under 0.03 µg/mL.

And the MIC ([3]; DSM19507, F. nucleatum (DSM 19507))?
The MIC was 8 µg/mL (≈ 11.5 µM).

What about the MIC ([4]; ATCC17857, C. difficile (ATCC 17857)) of the same compound?
The MIC was 0.00011 µg/mL (≈ 0.000158 µM).

And the MIC ([4]; ATCC43953, Clostridium difficile (ATCC 43953))?
The MIC was 0.007 µg/mL (≈ 0.01 µM).

What about the MIC ([5]; ATCC35218, Escherichia coli (ATCC 35218)) of the same compound?
The MIC was 50 µg/mL (≈ 71.7 µM).

And the MIC ([5]; Escherichia coli, ATCC11775, E. coli (ATCC 11775))?
Its MIC is 16 µg/mL (≈ 22.9 µM).

And the MIC ([5]; Escherichia coli, ATCC25922, E. coli (ATCC 25922))?
Its MIC is 64 µg/mL (≈ 91.7 µM).

What about the MIC ([5]; Escherichia coli, ATCC51446, E. coli (ATCC 51446)) of the same compound?
The MIC was 200 µg/mL (≈ 287 µM).

What about the MIC ([5]; Escherichia coli, DSM22312, E. coli (DSM 22312)) of the same compound?
Its MIC is 32 µg/mL (≈ 45.9 µM).

What about the MIC ([5]; Escherichia coli, DSM22313, E. coli (DSM 22313 )) of the same compound?
Its MIC is 64 µg/mL (≈ 91.7 µM).

And the MIC ([5]; Escherichia coli, DSM22664, E. coli (DSM 22664 ))?
The MIC was 32 µg/mL (≈ 45.9 µM).

And the MIC ([6]; DSM20088, B. longum (DSM 20088))?
Its MIC is 0.5 µg/mL (≈ 0.717 µM).

And the MIC ([6]; DSM20090, B. longum (DSM 20090))?
The MIC was 0.25 µg/mL (≈ 0.358 µM).

What about the MIC [7] of the same compound?
The MIC was 1 µg/mL (≈ 1.43 µM).

And the MIC [8]?
Its MIC is under 0.03 µg/mL.

And the MIC ([9]; DSM107839, Faecalibacterium prausnitzii (DSM 107839))?
Its MIC is 0.06 µg/mL (≈ 0.086 µM).

What about the MIC ([9]; Faecalibacterium prausnitzii, DSM17677, F. prausnitzii (DSM 17677)) of the same compound?
The MIC was under 0.03 µg/mL.

What about the MIC ([9]; Faecalibacterium prausnitzii, DSM107838, F. prausnitzii (DSM 107838)) of the same compound?
Its MIC is under 0.03 µg/mL.

And the MIC ([9]; Faecalibacterium prausnitzii, DSM107840, F. prausnitzii (DSM 107840))?
The MIC was under 0.03 µg/mL.

What about the MIC [10] of the same compound?
Its MIC is under 0.3 µg/mL.

And the MIC [11]?
The MIC was under 0.3 µg/mL.

And the IC50 ([12]; Homo sapiens, Epithelial cell, serum stimulated primary colonic epithelial cells, 48 hr, read-out: IC50, % cells positive for anti-pmTOR and anti-pS6R relative to DMSO)?
Its IC50 is 9.9 µM.

What about the “mTOR pathway potency, fold less potent than Rapamycin” value ([12]; ratio of IC50) of the same compound?
The value was 20 fold.

And the “mTOR pathway potency, fold more potent than Rifaximin” value ([12]; ratio of IC50)?
The value was 4 fold.

What about the MIC [13] of the same compound?
Its MIC is 0.5 µg/mL (≈ 0.717 µM).

What about the MIC ([14]; Enteroccocus faecium (0808711)) of the same compound?
Its MIC is 100 µg/mL (≈ 143 µM).

What about the MIC ([14]; Enterococcus faecium, DSM17050, E. faecium (DSM 17050)) of the same compound?
The MIC was 64 µg/mL (≈ 91.7 µM).

What about the MIC ([14]; Enterococcus faecium, DSM25697, E. faecium (DSM 25697)) of the same compound?
Its MIC is 1 µg/mL (≈ 1.43 µM).

And the MIC ([14]; Enterococcus faecium, E. faecium (09006056))?
Its MIC is 100 µg/mL (≈ 143 µM).

And the MIC ([14]; Enterococcus faecium, E. faecium (DSM13590))?
Its MIC is 32 µg/mL (≈ 45.9 µM).
